The nature of data set [1]: Cytotoxicity against alphavbeta3-expressing human U-87 MG cells assessed as reduction in cell viability measured after 96 hrs by MTT assay. Type of data set: toxicity, cell-based. The note with it: u-87mg atcc. For orientation: Tetrazolium dyes change colour on reduction, which living cells bring about.
A further data set deals with SK-MEL-2. The experiment in a line: Cytotoxicity against alphavbeta3-expressing human SK-MEL-2 cells assessed as reduction in cell viability measured after 96 hrs by MTT assay. The note with it: sk-mel-2, 96 h. Type of data set: toxicity, cell-based.
Data set [2] deals with T1, Integrin alpha-V/beta-3 (Homo sapiens) (UniProt P05106+P06756). The experiment in a line: Antagonist activity at alphavbeta3 integrin-mediated human SK-MEL-2 cell adhesion to fibronectin at 50 uM incubated with cells for 4 hrs followed by incubation with fibronectin in humidified chamber for 1 hr followed by incubation for overnight at 37 degC by MTT assay. Type of data set: cell-based.

In data set [3] the target is T1, Integrin alpha-V/beta-3 (Homo sapiens). Put plainly: Antagonist activity at alphavbeta3 integrin-mediated human SK-MEL-2 cell adhesion to fibronectin at 5 uM incubated with cells for 4 hrs followed by incubation with fibronectin in humidified chamber for 1 hr followed by incubation for overnight at 37 degC by MTT assay. Type of data set: cell-based. The note with it: filed as antagonist.

The nature of data set [4]: Toxicity in C57BL/6 immunocompetent mouse assessed as body weight upto 300 mg/kg, ip administered daily for 4 days. It is filed as organism-based. As to conditions: in vivo, 96 h, time 4 day.

The values below come from ChEMBL document CHEMBL6074637, “Sidechain structure-activity relationships of cyclobutane-based small molecule αvβ3 antagonists” (RSC Med Chem, 2024).

Structures are written as SMILES.

For the compound `O=C1C[C@H](NS(=O)(=O)c2ccccc2)C(=O)N1[C@H]1C[C@@H](CCc2ccc3c(n2)NCCC3)C1`, the Activity result (in data set [1]; in the data set with SK-MEL-2) was “Toxic” in each case.
Regarding `COC(=O)[C@H](CCNC(=O)[C@H]1C[C@@H](Cc2ccc3cccnc3n2)C1)NS(=O)(=O)c1c(C)cc(C)cc1C`, the Activity entry in data set [1] was “Toxic”.
Usually inhibition stands for the share of the control response that was lost under treatment. The low end stands for little suppression, the high end for strong suppression. As to `COC(=O)[C@H](CCNC(=O)[C@H]1C[C@@H](Cc2ccc3c(n2)NCCC3)C1)NS(=O)(=O)c1c(C)cc(C)cc1C`, the inhibition entry in data set [2] is on record as “Not determined; Greater Than 75% Inhibition In Initial Trial Experiment, Not Tested Further At This Concentration”. For the same compound, the Activity result (in data set [1]; in the data set with SK-MEL-2) was “Toxic” in each case.
For `CNc1cccc(CC[C@H]2C[C@@H](C(=O)NC[C@H](NS(=O)(=O)c3ccccc3)C(=O)OC)C2)n1`, the inhibition entry in data set [2] is “Not determined; Greater Than 75% Inhibition In Initial Trial Experiment, Not Tested Further At This Concentration”. In addition, the Activity result (in data set [1]; in the data set on SK-MEL-2) was “Toxic” throughout.
Regarding `O=C(O)C[C@H](NS(=O)(=O)c1ccccc1)C(=O)N[C@H]1C[C@@H](CCc2ccc3c(n2)NCCC3)C1`, the inhibition result in data set [2] is “Not determined; Greater Than 75% Inhibition In Initial Trial Experiment, Not Tested Further At This Concentration”. Besides, the Activity entry in the data set on SK-MEL-2 is recorded as “Toxic”.
As to `COC(=O)[C@H](CC(=O)N[C@H]1C[C@@H](CCc2ccc3cccnc3n2)C1)NS(=O)(=O)c1ccccc1`, the Activity entry (in data set [1]; in the data set with SK-MEL-2) was “Toxic” each time.
Consider `COC(=O)[C@H](CCNC(=O)[C@H]1C[C@@H](CCc2ccc3cccnc3n2)C1)NS(=O)(=O)c1c(C)cc(C)cc1C`, for which, in data set [2], the inhibition entry was “Not determined; Greater Than 75% Inhibition In Initial Trial Experiment, Not Tested Further At This Concentration”. For the same compound, the Activity entry (in data set [1]; with SK-MEL-2) was “Toxic” in each case.
For the compound `COC(=O)[C@H](CCNC(=O)[C@H]1C[C@@H](CCc2ccc3c(n2)NCCC3)C1)NS(=O)(=O)c1ccccc1`, the inhibition result in data set [2] is recorded as “Not determined; Greater Than 75% Inhibition In Initial Trial Experiment, Not Tested Further At This Concentration”. For the same compound, in the data set with SK-MEL-2, the Activity result is recorded as “Toxic”.
As for `COC(=O)[C@H](CCNC(=O)[C@H]1C[C@@H](Cc2ccc3c(n2)NCCC3)C1)NS(=O)(=O)c1ccccc1`, the inhibition result in data set [2] is “Not determined; Greater Than 75% Inhibition In Initial Trial Experiment, Not Tested Further At This Concentration”. Also, the Activity entry (in data set [1]; in the data set on SK-MEL-2) was “Toxic” each time.
Regarding `O=C1C[C@H](NS(=O)(=O)c2ccccc2)C(=O)N1[C@H]1C[C@@H](CCc2ccc3cccnc3n2)C1`, the Activity entry (in data set [1]; with SK-MEL-2) was “Toxic” throughout.
For the compound `COC(=O)[C@H](CCNC(=O)[C@H]1C[C@@H](CCc2ccc3cccnc3n2)C1)NS(=O)(=O)c1ccccc1`, in data set [2], the inhibition result is listed as “Not determined; Greater Than 75% Inhibition In Initial Trial Experiment, Not Tested Further At This Concentration”. Further, in the data set with SK-MEL-2, the Activity result was “Toxic”.
For the compound `COC(=O)[C@H](CCNC(=O)[C@H]1C[C@@H](CCc2ccc3c(n2)NCCC3)C1)NS(=O)(=O)c1c(C)cc(C)cc1C`, the inhibition result in data set [2] is listed as “Not determined; Greater Than 75% Inhibition In Initial Trial Experiment, Not Tested Further At This Concentration”. Moreover, the Activity entry (in data set [1]; in the data set on SK-MEL-2) was “Toxic” throughout.
`COC(=O)[C@H](CC(=O)N[C@H]1C[C@@H](CCc2ccc3c(n2)NCCC3)C1)NS(=O)(=O)c1ccccc1`: the Activity result (in data set [1]; with SK-MEL-2) was “Toxic” in each case.
On to `CC(C)(C)OC(=O)C[C@H](NS(=O)(=O)c1ccccc1)C(=O)N[C@H]1C[C@@H](CCc2ccc3cccnc3n2)C1`, for which the inhibition result in data set [2] is “Not determined; Greater Than 75% Inhibition In Initial Trial Experiment, Not Tested Further At This Concentration”. Further, the Activity result in the data set on SK-MEL-2 is “Toxic”.
For `COC(=O)[C@H](CC(=O)N[C@H]1C[C@@H](CCc2ccc3c(n2)NCCC3)C1)NS(=O)(=O)c1c(C)cc(C)cc1C`, the Activity result (in data set [1]; in the data set on SK-MEL-2) was “Toxic” throughout.
On to `O=C(O)C[C@H](NS(=O)(=O)c1ccccc1)C(=O)N[C@H]1C[C@@H](CCc2ccc3cccnc3n2)C1`, for which the Activity entry in the data set with SK-MEL-2 is reported as “Toxic”.
With `COC(=O)[C@H](CCNC(=O)[C@H]1C[C@@H](Cc2ccc3cccnc3n2)C1)NS(=O)(=O)c1ccccc1`, the Activity entry (in data set [1]; in the data set with SK-MEL-2) was “Toxic” each time.
As to `Cc1cc(C)c(S(=O)(=O)N[C@H]2CC(=O)N([C@H]3C[C@@H](CCc4ccc5cccnc5n4)C3)C2=O)c(C)c1`, the Activity entry with SK-MEL-2 is reported as “Toxic”.
As for `COC(=O)[C@H](CC(=O)N[C@H]1C[C@@H](CCc2ccc3cccnc3n2)C1)NS(=O)(=O)c1c(C)cc(C)cc1C`, the Activity entry (in data set [1]; in the data set with SK-MEL-2) was “Toxic” in each case.
`COC(=O)[C@H](CNC(=O)[C@H]1C[C@@H](CCc2ccc3c(n2)NCCC3)C1)NS(=O)(=O)c1ccccc1` displayed an inhibition in data set [3] of 59.5%.
As for `CC(C)(C)OC(=O)C[C@H](NS(=O)(=O)c1ccccc1)C(=O)N[C@H]1C[C@@H](CCc2ccc3c(n2)NCCC3)C1`, the Activity entry in the data set with SK-MEL-2 is listed as “Toxic”.
The same measure, in the same setting: as for `Cc1cc(C)c(S(=O)(=O)N[C@H]2CC(=O)N([C@H]3C[C@@H](CCc4ccc5c(n4)NCCC5)C3)C2=O)c(C)c1`, the entry is “Toxic”.
For `CNc1cccc(CC[C@H]2C[C@@H](C(=O)NC[C@H](NS(=O)(=O)c3c(C)cc(C)cc3C)C(=O)OC)C2)n1`, the Activity result was “Toxic” in data set [1], “Toxic” in the data set with SK-MEL-2 and “Non-toxic” in data set [4].
